Experimental data: publication PMC8957989, “Binding Affinity Characterization of Four Antennae-Enriched Odorant-Binding Proteins From Harmonia axyridis (Coleoptera: Coccinellidae)” (Frontiers in Physiology, 2022)
Like-named read-outs stand apart in the source and are kept apart here.

Legend:
HaxyOBP15 [1] = target: T1, HaxyOBP15 (Harmonia axyridis, UniProt A0A8K1AM29); assay: Fluorescent probe binding (titration of protein with probe); details: probe titrated to 2-16 μM, Tris-HCl 50 mM pH 7.4; read-out: dissociation constant of probe with HaxyOBP15
T1 sequence (A0A8K1AM29 entry or part of it): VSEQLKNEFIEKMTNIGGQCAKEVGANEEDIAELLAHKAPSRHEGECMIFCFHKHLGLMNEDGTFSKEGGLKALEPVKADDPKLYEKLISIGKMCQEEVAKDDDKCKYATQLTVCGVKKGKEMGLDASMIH
Procedure: A Cary Eclipse Fluorescence Spectrophotometer (Agilent Technologies, United States) was used to determine the results of the binding assay. N-phenyl-1-naphthylamine (1-NPN) for HaxyOBP15 and 4,4′-Dianilino-1,1′-binaphthyl-5,5′-disulfonic acid dipotassium salt (bis-ANS) for HaxyOBP3, 5, and 12 were chosen as the fluorescent probe. The excitation wavelength was 337 nm of 1-NPN and 295 nm of bis-ANS, and the emission spectrum was recorded between 350 and 500 nm for 1-NPN and between 300 and 550 nm for bis-ANS. The recombinant proteins prepared in Tris–HCl (50 mM, pH 7.4) was titrated with aliquots of 1 mM 1-NPN or bis-ANS to final concentrations ranging from 2 to 16 μM to measure the binding affinity. To further measure the binding affinity of ligands to HaxyOBPs, proteins and fluorescent probe at 2 μM were titrated with aliquots of 1 mM odorants. The binding constant (K1-NPN/bis-ANS) of 1-NPN or bis-ANS to HaxyOBPs was calculated by GraphPad Prism 5 software (GraphPad Software Inc.) with the equation Ki = [IC50]/(1 + [1-NPN]/K1-NPN) or [IC50]/(1 + [bis-ANS]/Kbis-ANS), where [1-NPN]/[bis-ANS] is the free concentration of 1-NPN/bis-ANS, and K1-NPN/Kbis-ANS is the dissociation constant of the protein/1-NPN (bis-ANS).

HaxyOBP15 [2] = target: T1, HaxyOBP15; assay: Competitive fluorescence binding assay (1-NPN probe); details: for Ki: Ki = [IC50]/(1 + [1-NPN]/K1-NPN)
Procedure: (§1) The positive plasmid was then transformed into BL21 (DE3) cells for the expression of recombinant proteins, and proteins induced with 0.5 mmol/L isopropyl β-D-1-thiogalactopyranoside (IPTG) for 4 h at 37°C (HaxyOBP3) or 16 h at 15°C (HaxyOBP5, 12, and 15). […] Inclusion bodies were denatured by 8 M urea.
(§2) Protein purification was performed with His-Tag Purification Resin column (Genscript Biology Company, Nanjing, Jiangsu, China) and purified by gradient imidazole buffer (20, 50, 100, 250, and 500 mmol·L^−1). The purity and size of proteins were detected by SDS-PAGE, and concentrations of proteins were measured with bicinchoninic acid (BCA) Protein Assay Kit (ThermoFisher Scientific-Life Technologies, Carlsbad, CA, United States).
(§3) A Cary Eclipse Fluorescence Spectrophotometer (Agilent Technologies, United States) was used to determine the results of the binding assay. N-phenyl-1-naphthylamine (1-NPN) for HaxyOBP15 and 4,4′-Dianilino-1,1′-binaphthyl-5,5′-disulfonic acid dipotassium salt (bis-ANS) for HaxyOBP3, 5, and 12 were chosen as the fluorescent probe.

HaxyOBP12 = HaxyOBP12 (Harmonia axyridis, UniProt A0A8K1AMY0); assay: Competitive fluorescence binding assay (bis-ANS probe); details: recombinant protein and bis-ANS at 2 μM, Tris-HCl 50 mM pH 7.4; for Ki: Ki = [IC50]/(1 + [bis-ANS]/Kbis-ANS)
Sequence of HaxyOBP12 (A0A8K1AMY0 entry or part of it): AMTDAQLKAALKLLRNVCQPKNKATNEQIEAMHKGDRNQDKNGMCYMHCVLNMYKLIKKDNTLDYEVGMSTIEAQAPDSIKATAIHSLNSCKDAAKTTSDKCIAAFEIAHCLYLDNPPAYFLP
Procedure: as §1, §2, §3

HaxyOBP5 = HaxyOBP5 (Harmonia axyridis, UniProt A0A8J9RUK3); assay: as above; details: for Ki: Ki = [IC50]/(1 + [bis-ANS]/Kbis-ANS)
Sequence of HaxyOBP5 (A0A8J9RUK3 entry or part of it): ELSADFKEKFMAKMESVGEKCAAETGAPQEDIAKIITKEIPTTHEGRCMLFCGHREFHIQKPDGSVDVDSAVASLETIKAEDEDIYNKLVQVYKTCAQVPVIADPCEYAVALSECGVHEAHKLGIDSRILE
Procedure: as §1, §2, §3

HaxyOBP3 = HaxyOBP3 (Harmonia axyridis, UniProt A0A8K1AM44); assay: as above; details: recombinant protein and bis-ANS at 2 μM, Tris-HCl 50 mM pH 7.4; for Ki: Ki = [IC50]/(1 + [bis-ANS]/Kbis-ANS)
Sequence of HaxyOBP3 (A0A8K1AM44 entry or part of it): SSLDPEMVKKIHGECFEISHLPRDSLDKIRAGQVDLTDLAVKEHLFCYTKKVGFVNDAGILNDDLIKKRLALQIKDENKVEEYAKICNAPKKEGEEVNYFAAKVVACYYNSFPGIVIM
Procedure: as §1, §2, §3

[3] = recombinant protein and 1-NPN at 2 μM, Tris-HCl 50 mM pH 7.4
[4] = recombinant protein and 1-NPN at 2 μM, Tris-HCl 50 mM pH 7.4, read-out: HaxyOBP15 IC50
[5] = HaxyOBP5 Ki, recombinant protein and bis-ANS at 2 μM, Tris-HCl 50 mM pH 7.4

c1ccc(Nc2cccc3ccccc23)cc1 [1-NPN, N-phenyl-1-naphthylamine]
Kd (HaxyOBP15 [1]): 5.07 ± 0.31 µM

CCCCCCCCC=O [Nonyl aldehyde]
Ki (HaxyOBP15 [2]; [3]): 29.6 ± 1.86 µM
IC50 (HaxyOBP15 [2]; [4]): 38.5 ± 2.03 µM

CC(=O)CCC1=C(C)CCCC1(C)C [Dihydro-β-ionone]
Ki (HaxyOBP15 [2]; [3]): 24 ± 2.65 µM
IC50 (HaxyOBP15 [2]; [4]): 30.9 ± 3.01 µM

COc1ccc(C=O)cc1 [p-Anisaldehyde]
IC50 (HaxyOBP12): 25.5 ± 1.99 µM
Ki (HaxyOBP12): 16.1 ± 1.21 µM
IC50 (HaxyOBP5): 19.9 ± 0.7 µM
Ki (HaxyOBP5; [5]): 13.4 ± 0.67 µM
IC50 (HaxyOBP3): 34.1 ± 1.06 µM
Ki (HaxyOBP3): 24.4 ± 0.37 µM

CC(=O)/C=C/C1C(C)=CCCC1(C)C (stereo not drawn) [α-Ionone]
IC50 (HaxyOBP15 [2]): 12 ± 0.56 µM

CC(=O)OC/C=C(\C)CCC=C(C)C [Geranyl acetate]
Ki (HaxyOBP15 [2]; [3]): 23.4 ± 3.04 µM
IC50 (HaxyOBP15 [2]; [4]): 30.3 ± 3.58 µM

C=CC(C)(CCC=C(C)C)OC(C)=O (stereo not drawn) [Linalyl acetate]
IC50 (HaxyOBP15 [2]): 40 ± 2.91 µM

COC(=O)c1ccccc1O [Methyl salicylate]
Ki (HaxyOBP5; [5]): 11.7 µM
Ki (HaxyOBP5; recombinant protein and bis-ANS at 2 μM, Tris-HCl 50 mM pH 7.4, read-out: HaxyOBP5 Ki): 18.1 ± 1.33 µM
IC50 (HaxyOBP5; recombinant protein and bis-ANS at 2 μM, Tris-HCl 50 mM pH 7.4, read-out: HaxyOBP5 IC50): 26.4 ± 1.96 µM

CC(=O)/C=C/C1=C(C)CCCC1(C)C [β-Ionone]
IC50 (HaxyOBP15 [2]): 6.99 ± 0.21 µM
IC50 (HaxyOBP12): 24 ± 1.56 µM
Ki (HaxyOBP12): 15.2 ± 1.06 µM
IC50 (HaxyOBP5): 17.8 ± 1.52 µM
Ki (HaxyOBP5; [5]): 11.7 ± 0.86 µM
IC50 (HaxyOBP3): 25.9 ± 2.85 µM
Ki (HaxyOBP3): 18.8 ± 2.14 µM

C=CC(=C)CC/C=C(\C)CCC=C(C)C [(E)-β-Farnesene]
Ki (HaxyOBP15 [2]; [3]): 4.33 ± 0.4 µM
IC50 (HaxyOBP15 [2]; [4]): 5.81 ± 0.46 µM
